Assay results from ChEMBL document CHEMBL4513152, “CO-ADD screening of Yantai University (China) compounds”.
≈ marks a conversion by molar mass, not a printed value.

What was measured:
HEK293 = assay: cells; format: functional; settings: Homo sapiens, ATCC CRL1573, HEK293; ASSAY_TEST Inhibition of Cell Viability; detection method Resazurin; Fluorescence (ex560/em590); MEDIA DMEM with 10% FBS; plate type 384well; TC; CORNING #3712; time 18 hr
Acinetobacter baumannii = assay: microbe, parasite or virus in culture; settings: ATCC 19606, 18 h, ASSAY_TEST Inhibition of Bacterial Growth, detection method Absorption (OD600), MEDIA CAMHB, plate type 384well, NBS, CORNING #3640
Description: Antibacterial activity against Acinetobacter baumannii ATCC 19606 (CO-ADD:GN_034); MIC in CAMBH media using NBS plates, by OD600

Pseudomonas aeruginosa = assay: microbe, parasite or virus in culture; settings: ATCC 27853, 18 h, ASSAY_TEST Inhibition of Bacterial Growth, detection method Absorption (OD600), MEDIA CAMHB, plate type 384well, NBS, CORNING #3640
Description: Antibacterial activity against Pseudomonas aeruginosa ATCC 27853 (CO-ADD:GN_042); MIC in CAMBH media using NBS plates, by OD(600)

Klebsiella pneumoniae = assay: microbe, parasite or virus in culture; settings: ATCC 700603, 18 h, ASSAY_TEST Inhibition of Bacterial Growth, detection method Absorption (OD600), MEDIA CAMHB, plate type 384well, NBS, CORNING #3640
Description: Antibacterial activity against Klebsiella pneumoniae MDR ATCC 70063 (CO-ADD:GN_003); MIC in CAMBH media using NBS plates, by OD(600)

Staphylococcus aureus = assay: microbe, parasite or virus in culture; settings: ATCC 43300, 18 h, ASSAY_TEST Inhibition of Bacterial Growth, detection method Absorption (OD600), MEDIA CAMHB, plate type 384well, NBS, CORNING #3640
Description: Antibacterial activity against Staphylococcus aureus MRSA ATCC 43300 (CO-ADD:GP_020); MIC in CAMBH media, using NBS plates, by OD(600)

Candida albicans = assay: microbe, parasite or virus in culture; settings: ATCC 90028, ASSAY_TEST Inhibition of Fungal Growth, detection method Absorption (OD530), plate type 384well, NBS, CORNING #3640
Description: Antifungal activity against Candida albicans ATCC 90028 (CO-ADD:FG_001); MIC in YNB media using NBS plates, by OD630

Escherichia coli = assay: microbe, parasite or virus in culture; settings: ATCC 25922, 18 h, ASSAY_TEST Inhibition of Bacterial Growth, detection method Absorption (OD600), MEDIA CAMHB, plate type 384well, NBS, CORNING #3640
Description: Antibacterial activity against Escherichia coli ATCC 25922 (CO-ADD:GN_001); MIC in CAMBH media using NBS plates, by OD(600)

Description for Cryptococcus neoformans: Antifungal activity against Cryptococcus neoformans H99 ATCC 208821 (CO-ADD:FG_002); MIC in YNB media using NBS plates, by Resazurin OD(600-570)

Compound | CC50 (HEK293) [µg/mL] | MIC (Acinetobacter baumannii) [µg/mL] | MIC (Pseudomonas aeruginosa) [µg/mL] | MIC (Klebsiella pneumoniae) [µg/mL] | MIC (Cryptococcus neoformans) [µg/mL] | MIC (Staphylococcus aureus) [µg/mL] | MIC (Candida albicans) [µg/mL] | MIC (Escherichia coli) [µg/mL]
CC(=O)O[C@H]1C[C@@]2(C)C(C[C@@H](O)C3[C@@]4(C)CC[C@@H](OC(=O)CCCCCN)[C@@H](C)C4CC[C@@]32C)/C1=C(\CCC=C(C)C)C(=O)OCc1ccccc1 (some centres undefined) | 8.27 (≈ 11.5 µM) | > 32 | > 32 | > 32 | 16 (≈ 22.2 µM) | 16 (≈ 22.2 µM) | 32 (≈ 44.4 µM) | > 32
CC(=O)O[C@H]1C[C@@]2(C)C(C[C@@H](O)C3[C@@]4(C)CC[C@@H](O)[C@@H](C)C4CC[C@@]32C)/C1=C(\CCC=C(C)C)C(=O)O/C(=N/C1CCCCC1)NC1CCCCC1 (some centres undefined) | 19.9 (≈ 27.5 µM) | > 32 | > 32 | > 32 | > 32 | 32 (≈ 44.3 µM) | > 32 | > 32
CC(=O)O[C@H]1C[C@@]2(C)C(C[C@@H](O)C3[C@@]4(C)CC[C@@H](OC(=O)C(N)Cc5ccccc5)[C@@H](C)C4CC[C@@]32C)/C1=C(\CCC=C(C)C)C(=O)OCc1ccccc1 (some centres undefined) | > 32 | > 32 | > 32 | > 32 | > 32 | > 32 | > 32 | > 32
CC(=O)O[C@H]1C[C@@]2(C)C(C[C@@H](O)C3[C@@]4(C)CC[C@@H](OC(=O)CN)[C@@H](C)C4CC[C@@]32C)/C1=C(\CCC=C(C)C)C(=O)OCc1ccccc1 (some centres undefined) | 10.8 (≈ 16.3 µM) | > 32 | > 32 | > 32 | 16 (≈ 24.1 µM) | > 32 | 32 (≈ 48.2 µM) | > 32
CCN/C(=N\CCCN(C)C)OC(=O)/C(CCC=C(C)C)=C1/C2C[C@@H](O)C3[C@@]4(C)CC[C@@H](O)[C@@H](C)C4CC[C@]3(C)[C@@]2(C)C[C@@H]1OC(C)=O (some centres undefined) | 15.4 (≈ 22.9 µM) | > 32 | > 32 | > 32 | > 32 | 8 (≈ 11.9 µM) | > 32 | > 32
CC(=O)O[C@H]1C[C@@]2(C)C(C[C@@H](O)C3[C@@]4(C)CC[C@@H](O)[C@@H](C)C4CC[C@@]32C)/C1=C(\CCC=C(C)C)C(=O)On1nnc2ccc(Cl)cc21 (some centres undefined) | > 32 | > 32 | > 32 | > 32 | > 32 | ≤ 0.25 | > 32 | > 32
CC(=O)O[C@H]1C[C@@]2(C)C(C[C@@H](O)C3[C@@]4(C)CC[C@@H](OC(=O)c5ccccc5C(=O)O)[C@@H](C)C4CC[C@@]32C)/C1=C(\CCC=C(C)C)C(=O)OCc1ccccc1 (some centres undefined) | 20.6 (≈ 27.3 µM) | > 32 | > 32 | > 32 | > 32 | 32 (≈ 42.4 µM) | > 32 | > 32
CC(=O)O[C@H]1C[C@@]2(C)C(C[C@@H](O)C3[C@@]4(C)CC[C@@H](O)[C@@H](C)C4CC[C@@]32C)/C1=C(\CCC=C(C)C)C(=O)O (some centres undefined) | > 32 | > 32 | > 32 | > 32 | > 32 | ≤ 0.25 | > 32 | > 32
